# Assay results taken from ChEMBL document CHEMBL1201862, “PubChem BioAssay data set” (2004).
# Active and inactive are the calls of the source. Rule as the data show it, for most assays here: actives have a measured EC50 and inactives only a lower limit.
# Legend:
# [1] = cytotoxicity toward NIH3T3 fibroblasts, dose response, counter-screen, cell-based, ATP luminescence, mouse fibroblasts (AID 2010); type: functional;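 also: cells exposed to compound for about 90 hours before reading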
# [2] = inhibitors of intracellular T. cruzi replication, confirmation, NIH3T3 host cells, beta-gal luminescence (AID 2044); type: functional, cell-based;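 also: intracellular parasites grown in NIH/3T3 mouse fibroblasts as host cells; luminescent beta-galactosidase reporter signal from transgenic T. cruzi replicating inside host cells; inhibitors lower the luminescence signal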
# [3] = target: T1, Protein RecA (Mycobacterium tuberculosis, UniProt P9WHJ3); assay: Fluorescence Cell-Free Homogeneous Dose Retest to Identify Inhibitors of RecA-Intein Splicing Activity. [Related pubchem assays (depositor defined):AID2097, AID2223, AID489010, AID492950]; type: functional
# T1 sequence (P9WHJ3 whole entry): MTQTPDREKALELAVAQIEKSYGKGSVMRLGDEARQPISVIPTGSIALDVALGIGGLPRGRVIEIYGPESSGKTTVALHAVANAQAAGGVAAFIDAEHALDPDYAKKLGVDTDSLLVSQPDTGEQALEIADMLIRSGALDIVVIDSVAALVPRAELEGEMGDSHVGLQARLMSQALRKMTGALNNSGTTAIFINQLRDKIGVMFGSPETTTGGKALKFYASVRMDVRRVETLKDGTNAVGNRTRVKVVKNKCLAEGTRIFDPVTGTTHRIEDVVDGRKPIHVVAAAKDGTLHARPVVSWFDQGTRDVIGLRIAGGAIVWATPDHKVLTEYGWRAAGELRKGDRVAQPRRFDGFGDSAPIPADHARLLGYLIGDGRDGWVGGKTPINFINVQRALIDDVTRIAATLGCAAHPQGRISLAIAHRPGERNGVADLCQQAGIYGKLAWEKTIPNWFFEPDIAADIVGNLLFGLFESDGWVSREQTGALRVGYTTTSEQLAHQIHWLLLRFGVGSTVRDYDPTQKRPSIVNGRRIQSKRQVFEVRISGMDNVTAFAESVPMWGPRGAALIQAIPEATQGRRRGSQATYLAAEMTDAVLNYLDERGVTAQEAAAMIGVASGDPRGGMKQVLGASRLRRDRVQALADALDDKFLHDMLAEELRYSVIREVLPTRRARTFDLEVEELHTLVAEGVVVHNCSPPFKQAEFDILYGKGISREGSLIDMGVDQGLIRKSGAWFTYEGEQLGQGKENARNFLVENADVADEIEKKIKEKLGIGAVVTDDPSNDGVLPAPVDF
# [4] = system: Streptococcus; assay: Group A Streptococcus viability loss, dose response, counter-screen for streptokinase expression inhibitor project, luminescence, BacTiterGlo (AID 1915); type: functional, organism-based;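 also: potency for reduction of bacterial viability or growth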
# [5] = system: Streptococcus sp. 'group A'; assay: growth inhibition of control SK(-) GAS strain, dose response, counter-screen for streptokinase expression inhibitor project, luminescence, kanamycin, BacTiterGlo, confirmation (AID 1900); type: functional, organism-based
# [6] = target: Cytochrome P450 2C9 (Homo sapiens, UniProt P11712)
# Chain of Cytochrome P450 2C9 (P11712 whole entry): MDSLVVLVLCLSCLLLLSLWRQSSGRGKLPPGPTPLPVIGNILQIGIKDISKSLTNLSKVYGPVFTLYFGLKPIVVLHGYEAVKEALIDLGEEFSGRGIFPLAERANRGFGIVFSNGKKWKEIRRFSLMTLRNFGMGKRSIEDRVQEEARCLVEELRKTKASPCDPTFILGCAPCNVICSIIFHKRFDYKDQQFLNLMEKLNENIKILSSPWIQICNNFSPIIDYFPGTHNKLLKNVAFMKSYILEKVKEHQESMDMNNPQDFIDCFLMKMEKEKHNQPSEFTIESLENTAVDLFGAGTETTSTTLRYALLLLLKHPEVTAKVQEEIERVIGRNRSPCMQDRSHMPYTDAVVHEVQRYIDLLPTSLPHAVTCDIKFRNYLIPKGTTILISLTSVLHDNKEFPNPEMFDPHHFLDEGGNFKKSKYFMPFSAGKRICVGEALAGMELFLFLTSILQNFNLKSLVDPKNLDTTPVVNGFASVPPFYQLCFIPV
# [7] = target: T2, Replicative DNA helicase DnaB (Mycobacterium tuberculosis, UniProt P9WMR3); assay: DnaB intein splicing inhibitors, dose response, biochemical, cell-free fluorescence (AID 449749); type: functional
# T2 sequence (P9WMR3 whole entry): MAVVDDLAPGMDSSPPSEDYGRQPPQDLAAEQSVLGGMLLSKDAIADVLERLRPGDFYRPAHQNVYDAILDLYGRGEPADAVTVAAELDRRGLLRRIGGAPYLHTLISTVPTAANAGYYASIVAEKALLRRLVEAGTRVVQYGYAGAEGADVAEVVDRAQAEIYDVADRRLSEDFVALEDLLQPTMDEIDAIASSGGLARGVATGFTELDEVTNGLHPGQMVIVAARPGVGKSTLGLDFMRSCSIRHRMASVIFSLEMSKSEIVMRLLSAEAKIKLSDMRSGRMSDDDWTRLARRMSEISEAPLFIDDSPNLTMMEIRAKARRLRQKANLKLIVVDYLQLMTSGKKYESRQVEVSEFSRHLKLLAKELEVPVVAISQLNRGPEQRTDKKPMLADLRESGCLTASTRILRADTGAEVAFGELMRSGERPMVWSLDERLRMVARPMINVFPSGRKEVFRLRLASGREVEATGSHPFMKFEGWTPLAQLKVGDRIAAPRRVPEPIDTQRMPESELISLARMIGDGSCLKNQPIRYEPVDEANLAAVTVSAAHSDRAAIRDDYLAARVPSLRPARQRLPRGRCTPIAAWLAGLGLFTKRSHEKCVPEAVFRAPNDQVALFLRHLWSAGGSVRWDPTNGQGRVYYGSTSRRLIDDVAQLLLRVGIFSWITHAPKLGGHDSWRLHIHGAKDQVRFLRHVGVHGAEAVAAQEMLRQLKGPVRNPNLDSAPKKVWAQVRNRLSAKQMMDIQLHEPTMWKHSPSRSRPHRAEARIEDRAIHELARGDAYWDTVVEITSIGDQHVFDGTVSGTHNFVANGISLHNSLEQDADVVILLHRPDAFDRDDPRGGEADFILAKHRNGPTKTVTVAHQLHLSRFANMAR
SMILES,EC50 [1],EC50 [2],EC50 [3],also measured
COc1ccc([N+](=O)[O-])cc1NC(=O)COC(=O)C1CC1,> 60 µM (inconclusive),> 60000 nM (not active),,
O=C(Nc1nc(-c2ccco2)c(-c2ccco2)s1)c1cnccn1,8.94 µM (active),5790 nM (active),,
N#CC1=C(N)Oc2[nH]nc(-c3cccs3)c2C1c1cccnc1 (configuration not stated),,,> 380 µM (inactive),
COc1ccc(C(=O)CSc2nc(O)cc(C(F)(F)F)c2C#N)cc1,,,,EC50 [4]: 15.4 µM (active); EC50 [5]: 3.58 µM (active)
Cc1nc2cnc(OCc3ccccc3)nc2n(Cc2ccc(F)cc2)c1=O,,,,AC50 [6]: 10 µM (inconclusive)
CN(C)[C@@H]1C(O)=C(C(N)=O)C(=O)[C@]2(O)C(O)=C3C(=O)c4c(O)cccc4[C@@](C)(O)[C@H]3[C@H](O)[C@@H]12,,,,AC50 [6]: 5.01 µM (inconclusive)
COc1cccc(-c2cncnc2NCc2ccccc2OC)c1,,,,AC50 [6]: 0.631 µM (inconclusive)
O=C(N/N=C/c1cc(Br)cc([N+](=O)[O-])c1O)c1ccc(NC(=O)c2ccc(F)cc2)cc1,,,,EC50 [4]: 6.54 µM (active); EC50 [5]: 2.34 µM (active)
C#CCOC(=O)c1ccccc1C(=O)n1nnc2ccccc21,,,8.84 µM (active),AC50 [7]: 6.81 µM (active)
CCOC(=O)C1(Cc2ccccc2)CCN(Cc2cnc(N3CCOCC3)s2)CC1,> 60 µM (inconclusive),644 nM (active),,
CCOC(=O)CN1N=C(/C=C/c2ccc(C)cc2)CCC1=O,,,,AC50 [6]: 28.2 µM (inconclusive)
CC1CN(c2nc3ccccc3nc2C(C#N)C(=O)OC2CCCCC2)CC(C)O1 (configuration not stated),10.6 µM (active),1150 nM (active),,
CCN1C(=O)c2c(C)nc3ccccc3c2C1=O,,,0.781 µM (active),AC50 [7]: 43.4 µM (active)
Cn1cc(C(=O)c2ccc(Cl)cc2Cl)cc1C(=O)O,,,,AC50 [6]: 14.1 µM (inconclusive)
COc1ccc(Nc2ncc3nc(-c4cccs4)c(=O)n(Cc4cccc(OC)c4)c3n2)cc1,,,,AC50 [6]: 39.8 µM (inconclusive)
CC(C)c1ccc(C(=O)NC(=S)Nc2ccc3[nH]c(O)nc3c2)cc1,,,,EC50 [4]: 53.6 µM (active); EC50 [5]: 10.2 µM (active)
Cc1cc(N2C(=O)C(O)=C(C(=O)c3cc4ccccc4o3)C2c2cccc(Cl)c2)no1 (configuration not stated),,,,EC50 [4]: 5.36 µM (active); EC50 [5]: 2.09 µM (active)
O=C(CN(c1ccc(Br)cc1)S(=O)(=O)c1ccc(Cl)c([N+](=O)[O-])c1)NCCc1ccccc1,> 60 µM (not active),592 nM (active),,
O=C(Cn1cnc([N+](=O)[O-])n1)NCc1ccccc1,> 60 µM (not active),479 nM (active),,
Cc1cc(C)c(C#N)c(SCc2nnc(-c3ccccc3[N+](=O)[O-])o2)n1,> 60 µM (not active),2200 nM (active),,
O=c1c2c3c(sc2n(CCN2CCCC2)c(=O)n1Cc1ccco1)CCCCC3,> 30 µM (not active),331 nM (active),,
CN(C)CCC1CCN(c2cc(C#N)c(C#N)cc2[N+](=O)[O-])CC1,> 60 µM (not active),345 nM (active),,
CC(O)CNc1nc2sc3c(c2c(=O)n1CCc1ccccc1)CCCCC3 (configuration not stated),> 60 µM (not active),1890 nM (active),,

SMILES,EC50 [1],EC50 [2],EC50 [3],also measured
O=C(CC[S+]([O-])NCc1ccccc1)NCc1ccccc1 (configuration not stated),,,> 380 µM (inactive),AC50 [7]: > 380 µM (inactive)
O=C(NC(=S)NNC(=O)[C@H]1C[C@@H]1c1ccccc1)c1ccc(F)cc1,,,,EC50 [4]: 1.87 µM (active); EC50 [5]: 0.775 µM (active)
Cc1cc(C)cc(C(=O)Nc2nc3ccccc3[nH]2)c1,,,,EC50 [4]: 7.31 µM (active); EC50 [5]: 10.6 µM (active)
COc1cc(/C=C/C(=O)OCC(=O)Nc2ccccc2Sc2ccc(Cl)cc2)ccc1O,,,3.62 µM (active),AC50 [7]: > 380 µM (inactive)
FC(F)(F)c1cccc(Oc2nc(-c3ccccc3)nnc2C(F)(F)F)c1,,,0.76 µM (active),AC50 [7]: 2.06 µM (active)
Cc1ccn2c(Nc3ccccc3C)c(-c3ccncc3)nc2c1,> 60 µM (not active),560 nM (active),,
CN1CCN(C2=C(Cl)C(=O)N(c3ccc(Cl)cc3)C2=O)CC1,,,0.247 µM (active),AC50 [7]: 1.07 µM (active)
CCNc1ncc2nc(-c3cn(C)c4ccccc34)c(=O)n(Cc3ccc(F)cc3)c2n1,,,,AC50 [6]: 25.1 µM (inconclusive)
CC1=NN(Cc2ccccc2)C(=O)C1C(c1ccncc1)C(C#N)C#N (configuration not stated),,,3.52 µM (active),AC50 [7]: 9.46 µM (active)
O=[N+]([O-])c1ccc(N2CCN(S(=O)(=O)c3ccc(Cl)c(Cl)c3)CC2)cc1NCCN1CCOCC1,> 60 µM (not active),1680 nM (active),,
N#C/C(=C/N1CCOCC1)c1ccccc1,,,,AC50 [6]: 28.2 µM (inconclusive)
Cc1ccc(SCc2ccc(C(=O)Nc3cccc([N+](=O)[O-])c3C)cc2)cc1,> 30 µM (not active),1670 nM (active),,
CCC1C(=O)N(c2nc(C)cc(C)n2)N=C1C (configuration not stated),,,3.3 µM (active),AC50 [7]: 8.34 µM (active)
O=C(O)CCc1ccc(-c2ccccc2)[nH]1,,,,AC50 [6]: 3.16 µM (inconclusive)
O=C(NCc1ccc2c(c1)OCO2)c1ccc(N2CCCCCC2)c([N+](=O)[O-])c1,> 60 µM (not active),709 nM (active),,
CCC(=O)N/N=C(\C)CC(=O)Nc1cccc([N+](=O)[O-])c1,,,2.36 µM (active),AC50 [7]: 23.4 µM (active)
Cc1ccc(N=C(S)c2nc3ccccc3[nH]2)c(C)c1,,,,EC50 [4]: > 150 µM (not active); EC50 [5]: 2.12 µM (active)
Cc1nc(Nc2nc(O)cc(-c3ccccc3)n2)nc2ccccc12,,,,EC50 [4]: 8.02 µM (active); EC50 [5]: 4.95 µM (active)
CN1CCc2nc(SCC(=O)Nc3ccc(OC(F)(F)F)cc3)c(C#N)c(-c3cccs3)c2C1,,,2.33 µM (active),AC50 [7]: > 380 µM (inactive)
O=C(NC1CCCC1)C(c1ccncc1)N(Cc1ccco1)C(=O)c1ccc(-c2ccccc2)[nH]1 (configuration not stated),> 30 µM (not active),641 nM (active),,
Cn1[nH]c(CSc2ccc(Cl)cc2)cc1=O,,,10 µM (active),AC50 [7]: 20.2 µM (active)
C/C(CC(=O)Nc1ccccn1)=N\NC(=O)Cc1cccc2ccccc12,,,2.73 µM (active),AC50 [7]: 3.54 µM (active)
CCOc1ccccc1Oc1coc2cc(OC(=O)c3ccco3)ccc2c1=O,,,35.7 µM (active),AC50 [7]: > 380 µM (inactive)
